Data on 8 molecules can be found in publication PMC10708468, “New Dipyrroloquinones from a Plant-Derived Endophytic Fungus Talaromyces sp” (Molecules, 2023).

The test system of series [1] is human lung cancer cells A549. The series is described as follows: MTT cytotoxic activity assay, A549. The class given is cell-based. Here is the method:
(§1) The 3-(4,5-dimethyl-2-thiazolyl)-2,5-diphenyl-2-h-tetrazole ammonium bromide (MTT) experiment was applied to test the cytotoxic activity for 1–6 against human lung cancer cells A549 and liver cancer cells Hep G2. Cells in RPMI-1640 medium (10% FBS, 0.4% penicillin–streptomycin solution) were digested with trypsin and diluted to the concentration of 1 × 10^4 cells/mL. The cell suspensions were diluted and added into a 96-well microtiter plate with 200 µL per well. The plate was then incubated in a CO2 incubator at 37 °C. Compounds 1–6 were added to the plate wells after 24 h and incubated for 72 h. Adriamycin (ADM) was used as the positive control, and DMSO as the blank control. The MTT solution was added after 72 h incubation, followed by incubation for 4 h. The cells were successively disrupted with 200 µL of DMSO for 10 min after the supernatant liquid was removed. The absorption was measured at 570 nm.
In general terms: Tetrazolium assays rely on reduction of a dye to a coloured formazan, in cell work by metabolically active cells.

Series [2] deals with liver cancer cells Hep G2. The series is described as follows: MTT cytotoxic activity assay, Hep G2. It counts as cell-based. To be noted: Homo sapiens. As to the method:
as §1

Series [3] has as its system LPS-induced NO production in macrophage RAW264.7 cells. In words: Inhibition of LPS-induced NO production (Griess reaction). The class given is cell-based. Particulars: Mus musculus; for IC50: macrophage RAW264.7 cells, given as IC50, read-out: IC50 inhibition of LPS-stimulated NO production. As to the method: (§2) RAW264.7 cells were cultured in DMEM with 10% fetal bovine serum (FBS) and 1% penicillin-streptomycin at 37 °C in 5% CO2. The MTT assay was used to evaluate cell viability. RAW264.7 cells were seeded on 96-well plates at 5 × 10^5 cells/well [26]. After incubation with compounds 1–6 at five concentrations ([…]) for 24 h, cells were treated with MTT (5 mg/mL) at 37 °C for 4 h. Then, the supernatant was removed and the […] was crystalised with DMSO. The absorbance was measured at 570 nm. The Griess reaction was applied to measure the accumulation of NO2^− in culture supernatant. RAW264.7 cells were treated with the compounds for 1 h then with the presence of LPS (1 μg/mL) for 24 h. The culture supernatant fluids (50 µL) and Griess reagent (50 µL) were mixed and incubated at room temperature. The absorbance was read at 570 nm after 15 min.
In general terms: Griess reagent forms a coloured azo dye with nitrite.

Another series relates to RAW264.7 cells. In words: MTT cell viability of RAW264.7 cells (non-toxic concentrations). It counts as cell-based. Particulars: 24 h. Here is the method: as §2
The subject of series [4] is PI3K-Akt-mTOR signalling pathway. In words: Western blot analysis of PI3K-Akt-mTOR signalling pathway in A549 cells. It counts as cell-based, human. To be noted: 0.2 and 0.4 μM, 24 h. Here is the method:
Considering the significant cytotoxicities of penicillixanthone A (4), we evaluated its plausible molecular mechanism in A549 tumour cells using western blot analysis in Figure 5. Compound 4 (0.2 and 0.4 µM) was firstly pretreated for 24 h to test the PI3K expression.
Figure 5 The protein expression of the PI3K-Akt-mTOR signalling pathway of 4 was evaluated by western blot analysis. A549 cells were treated with 4 (0.2 and 0.4 μM) for 24 h, and the expression levels of PI3K, Akt and mTOR were tested by the responsible antibodies. […] Data are represented as the mean ± SD, n = 3, *** p < 0.01 vs. Control.

Setting [5] is: A549 cells, MTT, 72 h incubation, read-out: IC50 cytotoxicity A549.
The mark [6] stands for this setting: HepG2 cells, MTT, 72 h incubation, read-out: IC50 cytotoxicity HepG2.
The mark [7] stands for this setting: LPS (1 μg/mL)-induced NO production in RAW264.7 cells, 24 h, Griess reaction, read-out: EC50.

Molecules are shown by their SMILES. “Also recorded” adds a separate entry of the source. Like-named read-outs stand apart in the source and are kept apart here.

Broadly, the IC50 is the concentration that inhibits the measured activity by half. In general, EC50 refers to the concentration at which the effect is half-maximal. In the case of `CO[C@H](c1cc2c([nH]1)C(=O)c1cc([C@H](OC)C(C)C)[nH]c1C2=O)C(C)C` [Compound 3, terreusinone D], the IC50 in series [1] (setting [5]) is 62.7 µM; in series [2] (setting [6]), 57.4 µM; in series [3], 20.6 µM. Moreover, the EC50 in series [3] (setting [7]) was 20.6 µM. In addition, the “Non-Toxic Concentrations” value with RAW264.7 cells fell in the range of 2.79 to 279.32 µM.
With `Oc1ccc(/C=C/c2cc(O)cc(O)c2)cc1` [resveratrol, reference compound], the EC50 in series [3] (setting [7]) was found to be 1.6 µM. Also, in the series on RAW264.7 cells, the “Non-Toxic Concentrations” value was in the range of 0.43 to 109.52 µM.
As for `COc1cccc2c1C(=O)c1c(O)c3c(c(O)c1C2=O)C[C@@](O)(C(=O)CO)C[C@@H]3O[C@H]1C[C@H](N)[C@H](O)[C@H](C)O1` [adriamycin, Adriamycin, reference compound], the IC50 in series [1] (setting [5]) was 3.5 µM; in series [2] (setting [6]) it was 1.2 µM.
On to `COC(=O)[C@]12Oc3ccc(-c4ccc(O)c5c4O[C@@]4(C(=O)OC)C(=C(O)C[C@@H](C)[C@@H]4O)C5=O)c(O)c3C(=O)C1=C(O)C[C@@H](C)[C@@H]2O` [Compound 4, penicillixanthone A], for which the IC50 in series [1] (A549 cell line, read-out: IC50 cytotoxic activity A549) is 0.212 µM; in series [1] (setting [5]), 0.117 µM; in series [2] (HepG2, Hep G2 cell line, read-out: IC50 cytotoxic activity Hep G2), 0.117 µM; in series [2] (setting [6]) it was 0.212 µM. The same molecule yielded an EC50 in series [3] (RAW264.7, 24 h) of 1 µM. The phospho-PI3K expression result in series [4] is given as “decrease the phospho-PI3K expression”. Further, the phospho-mTOR/Akt expression entry in series [4] is listed as “significantly suppressed”. Moreover, the “expression of PI3K, Akt and mTOR (PI3K-Akt-mTOR signalling pathway)” value in series [4] (p < 0.01 vs. Control) is “inhibiting the PI3K-Akt-mTOR signalling pathway; also recorded: inhibited the expression of PI3K, Akt and mTOR”.
Take `CC(O)Cc1cc(O)c2c(c1)C(=O)c1cc(O)cc(O)c1C2=O` (centres unmarked) [Compound 5, isorhodoptilometrin]: the IC50 in series [1] (setting [5]) and in series [2] (setting [6]) was above 150 µM each time. In series [3] (setting [7]), the EC50 is 121 µM. For the same molecule, the “Non-Toxic Concentrations” value in the series on RAW264.7 cells fell in the range of 3.18 to 318.47 µM.
As for `CO[C@@H](c1cc2c([nH]1)C(=O)c1cc([C@H](O)C(C)C)[nH]c1C2=O)C(C)C` [Compound 2, Talaroterreusinone B], the IC50 is 98.8 µM in series [1] (setting [5]), 84.7 µM in series [2] (setting [6]) and 30.7 µM in series [3]. Moreover, in series [3] (setting [7]), the EC50 amounted to 30.7 µM. Besides, in the series on RAW264.7 cells, the “Non-Toxic Concentrations” value fell in the range of 2.90 to 190.69 µM.
As to `CC(C)C(=O)c1cc2c([nH]1)C(=O)c1cc([C@H](O)C(C)C)[nH]c1C2=O` [Compound 1, talaroterreusinone A], the values for the IC50 in series [1] (setting [5]), in series [2] (setting [6]) and in series [3] were 133 µM, 111 µM and 20.3 µM, respectively. Besides, the EC50 in series [3] (setting [7]) was 20.3 µM. The “Non-Toxic Concentrations” value with RAW264.7 cells was 3.04 to 304.87 µM.
Turning to `C/C1=C\Cc2c(cc(O)c3c2C[C@@H](C)OC3=O)OC(C)(C)[C@@H](O)CC/C(C)=C/CC1` [Compound 6, chrysomutanin], the IC50 in series [1] (setting [5]) amounted to 42.5 µM; in series [2] (setting [6]) it was 43.9 µM. Besides, the EC50 in series [3] (setting [7]) turned out to be 142 µM. The “Non-Toxic Concentrations” value in the series with RAW264.7 cells was in the range of 2.41 to 241.54 µM.
